{"source": "paper PMC7305224", "about": "“Mutually stabilizing interactions between proto-peptides and RNA” (Nature Communications, 2020)", "key": {"[1]": {"details": "cited from earlier work", "description": "Several lines of evidence support the importance of electrostatic interactions in the observed stabilizations of RNA duplexes. First, as would be expected, higher numbers of cationic residues present in the depsipeptide/peptide led to greater increases in RNA duplex Tm (Table 1, entries #1–7). Second, the effect of His-containing depsipeptides was pH-dependent (Figs. 2d and 3c, d), as expected based on the His pKa of ~6.0. […] The ineffectiveness of this sequence is probably due to the l ..."}, "[2]": {"tested_on": "10-mer RNA duplex (5′-6-FAM-rCrGrCrUrArArArUrCrG-3′ & 5′-rCrGrArUrUrUrArGrCrG-3IABkFQ-3′)", "experiment": "RNA duplex Tm by rtPCR fluorescence with dry-down reaction mixtures", "format": "binding", "details": "not subjected to the dry-down reaction (non-dried)", "text": "Accordingly, we determined the effect of cationic proto-peptides on RNA duplex stability by monitoring changes in the melting temperature (Tm) of a short 10mer RNA duplex in the presence or absence of individual proto-peptide samples (Fig. 2). The complementary RNA strands were 5′- or 3′-labeled with either a fluorophore or a quencher so that the degree of RNA hybridization could be monitored by fluorescence in rtPCR instrumentation (Supplementary Fig. 9). […] For the Tm measurements, the proto-peptide samples were diluted to a final concentration of 25 mM (based on the amount of cationic amino acid used at the start of the dry-down) and mixed with the RNA duplex (2.5 μM each strand).\nDry-down reaction products were dissolved in deionized water to give a 100 mM stock solution based on the amount of monomers used at the start of the dry-down. […]\nPrior to Tm analyses, RNA samples were annealed in the appropriate buffer by heating to 75 °C and slowly cooling to room temperature. […] For analyses involving dry-down reaction mixtures, the Tm was determined by monitoring fluorescence increase upon melting of a fluorophore/quencher-labeled RNA duplex (5′-rCrGrArUrUrUrArGrCrG-/3IABkFQ/-3′ and 3′-rGrCrUrArArArUrCrGrC-FAM-5′) using a BioRad CFX Connect rtPCR instrument with a heating ramp of 1 °C/min and 20 μL final sample volumes."}, "[3]": {"tested_on": "RNA duplex 1", "experiment": "CD analysis of RNA duplex with peptides/depsipeptides", "format": "binding", "details": "for changes in CD spectra of the RNA duplex upon addition: RNA duplex 5 µM, peptide/depsipeptide 0–10 µM, MES-TEA buffer (60 mM)", "description": "The gel was cropped at the edges for clarity. […] […] Red and blue colors of the filled circles correspond to curves of the same color in panel (c). […] […] Scans were from 320 nm to 220 nm with a bandwidth of 5 nm, data pitch of 0.2 nm, and scan rate of 50 nm/min with three accumulations. […] Data were collected in independent triplicates and the data were averaged. Finally, data were smoothed and plotted using Matlab."}, "[4]": {"tested_on": "RNA duplex 1 (5′-rCrGrCrUrArArArUrCrG-3′ & 5′-rCrGrArUrUrUrArGrCrG-3′)", "experiment": "RNA thermal denaturation (Tm) by UV hyperchromicity at 260 nm with synthetic peptides/depsipeptides, RNA duplex 1", "format": "binding", "details": "100 mM NaCl", "description": "Each sample contained RNA duplex 1 (5′-rCrGrCrUrArArArUrCrG-3′ and 5′-rCrGrArUrUrUrArGrCrG-3′, 2.5 μM strand) and peptide/depsipeptide (100 μM) in buffered solution (10 mM phosphate, 100 mM NaCl, pH 7.0 or 10 mM acetate, 100 mM NaCl, pH 5.0). a Structures of depsipeptides used to systematically characterize cationic side chain effects on RNA duplex stability. Lactic acid residues are highlighted. Ac acetyl, Aba acetamidobenzoic acid, which was appended to the N-terminus to increase UV absorbance. b Structures of the Fmoc-didepsipeptide building blocks used for solid-phase synthesis of depsipeptide sequences. Fmoc fluorenylmethoxycarbonyl. c Comparative effects of oligo-didepsipeptide sequences 2–6 and analogous oligo-dipeptide and on the Tm of the RNA duplex (number of independent measurements: n = 3 for Arg and Lys sequences; n = 2 for His and Dab sequences; n = 4 for Orn sequences). The shaded areas correspond to the mean ± SD Tm measured for the RNA duplex alone (n = 16 independent measurements). Data are shown as a scatter plot with mean ± SD. d Comparative effects on RNA duplex Tm of depsipeptide sequences containing a single backbone ester (number of independent measurements: n = 3 for Arg; n = 2 for His, Orn, and Dab; n = 4 for Lys), relative to RNA duplex alone (n = 16 independent measurements). Data are shown as a scatter plot with mean ± SD. e To assess the impact of different cationic side chains on depsipeptide degradation rates, depsipeptides 7–11 (40 μM) were incubated at 37 °C in buffer (100 mM HEPES, 10 mM NaCl, pH 7.3). After 5 min, the reactions were quenched by the addition of 3% TFA, and samples were analyzed by HPLC.\n(§1) Prior to Tm analyses, RNA samples were annealed in the appropriate buffer by heating to 75 °C and slowly cooling to room temperature. Depsipeptide/peptide was added to the annealed RNA and incubated at 4 °C for 20 min prior to carrying out the analysis. For analyses involving dry-down reaction mixtures, the Tm was determined by monitoring fluorescence increase upon melting of a fluorophore/quencher-labeled RNA duplex (5′-rCrGrArUrUrUrArGrCrG-/3IABkFQ/-3′ and 3′-rGrCrUrArArArUrCrGrC-FAM-5′) using a BioRad CFX Connect rtPCR instrument with a heating ramp of 1 °C/min and 20 μL final sample volumes. For analyses involving pure, synthetic compounds, the Tm of the RNA was determined by monitoring UV hyperchromicity at 260 nm using a Varian Cary Bio-100 spectrophotometer, with a heating ramp of 1 °C/min and 0.5- or 1-cm pathlength cells. The following RNA sequences were used: RNA duplex 1 = 5′-rCrGrCrUrArArArUrCrG-3′ and 5′-rCrGrArUrUrUrArGrCrG-3′; RNA duplex 2 = 5′-rArArArArUrUrUrArUrArUrUrArUrUrA-3′ and 5′-rUrArArUrArArUrArUrArArArUrUrUrU-3′; RNA duplex 3 = 5′-rArArCrGrUrArUrArCrGrUrU-3′ (palindromic); and H26a RNA = 5′-rArUrGrArGrUrArArCrCrGrUrArArGrGrUrGrArArArUrU-3′. RNA was present in each assay at a final concentration of 2.5 μM of the folded structure (2.5 μM each strand for duplex 1 and duplex 2, 5.0 μM palindromic strand for duplex 3, 2.5 μM strand for H26a RNA). Tm values were determined by nonlinear fitting of the melting curves using GraphPad Prism 8.2.1 for duplex 1 and H26a, or by finding the maximum of the first derivative of the curve using the Varian Cary Bio-100 software for duplex 2 and duplex 3."}, "[5]": {"tested_on": "RNA duplex 2 (5′-rArArArArUrUrUrArUrArUrUrArUrUrA-3′ and 5′-rUrArArUrArArUrArUrArArArUrUrUrU-3′)", "experiment": "RNA thermal denaturation (Tm) by UV hyperchromicity, RNA duplex 2", "format": "binding", "description": "as §1, with “3. Both methods of determining the Tm gave similar values for a given denaturation curve.” for “3.”"}, "[6]": {"tested_on": "RNA duplex 3 (5′-rArArCrGrUrArUrArCrGrUrU-3′, palindromic)", "experiment": "RNA thermal denaturation (Tm) by UV hyperchromicity, RNA duplex 3", "format": "binding", "description": "as §1, with “3. Both methods of determining the Tm gave similar values for a given denaturation curve.” for “3.”"}, "[7]": {"tested_on": "H26a RNA (5′-rArUrGrArGrUrArArCrCrGrUrArArGrGrUrGrArArArUrU-3′)", "experiment": "RNA thermal denaturation (Tm) by UV hyperchromicity, H26a RNA hairpin", "format": "binding", "description": "as §1, with “3. Both methods of determining the Tm gave similar values for a given denaturation curve.” for “3.”"}}, "note": "Entries after “also recorded” stand apart in the source; their conditions may differ. Non-standard residues stand in square brackets, D forms with d. Residues, ends and D or L forms follow the SMILES beside them. Dab = NCC[C@H](N)C(=O)O; Lac = C[C@H](O)C(=O)O", "data": [{"smiles": "NCC(N)C(=O)O", "note": "(stereo not shown) [Dpr, 2,3-diaminopropionic acid]", "values": [{"measurement": "pKa of side chain β-amine", "setting": "[1]; when incorporated into oligomeric sequences", "result": "~ 6.3"}]}, {"smiles": "NCCCCC(O)C(=O)O", "note": "(stereo not shown) [hah, 2-hydroxy-6-aminohexanoic acid]", "values": [{"measurement": "effect on RNA duplex Tm, non-dried controls", "setting": "[2]", "result": "no effect on the Tm"}]}, {"smiles": "NCCC(O)C(=O)O", "note": "(stereo not shown) [hab, 2-hydroxy-4-aminobutyric acid]", "values": [{"measurement": "effect on RNA duplex Tm, non-dried controls", "setting": "[2]", "result": "no effect on the Tm"}]}, {"smiles": "CC(=O)N[C@@H](Cc1ccc(O)cc1)C(=O)NCC(=O)N[C@@H](C)C(=O)N[C@@H](CCN)C(=O)N[C@@H](CCCCN)C(=O)N[C@@H](C)C(=O)N[C@@H](CCN)C(=O)N[C@@H](CCCCN)C(=O)N[C@@H](C)C(=O)N[C@@H](CCN)C(=O)N[C@@H](CCCCN)C(N)=O", "note": "(Ac-YGA[Dab]KA[Dab]KA[Dab]K-NH2)", "values": [{"measurement": "changes in CD spectra of the RNA duplex upon addition", "setting": "[3]", "result": "physical association"}]}, {"smiles": "CC(=O)N[C@@H](Cc1ccc(O)cc1)C(=O)NCC(=O)N[C@@H](C)C(=O)N[C@@H](CCN)C(=O)N[C@@H](CCCCN)C(=O)N[C@@H](C)C(=O)N[C@@H](CCN)C(=O)N[C@@H](CCCCN)C(=O)N[C@@H](C)C(=O)N[C@@H](CCN)C(=O)N[C@@H](CCCCN)C(=O)N[C@@H](C)C(=O)N[C@@H](CCN)C(=O)N[C@@H](CCCCN)C(N)=O", "note": "(Ac-YGA[Dab]KA[Dab]KA[Dab]KA[Dab]K-NH2)", "values": [{"measurement": "changes in CD spectra of the RNA duplex upon addition", "setting": "[3]; listed as Ac-Tyr-Gly-(Ala-Dab-Lys)4-NH2", "result": "physical association; also recorded: changes were observed in the CD spectra"}]}, {"smiles": "N[C@@H](Cc1c[nH]cn1)C(=O)O", "note": "[His, histidine]", "values": [{"measurement": "pKa", "setting": "[1]; His side chain, no reference given", "result": "~ 6.0"}]}, {"smiles": "CC(=O)N[C@@H](Cc1ccc(O)cc1)C(=O)NCC(=O)N[C@@H](C)C(=O)N[C@@H](CCN)C(=O)N[C@@H](CCCCN)C(=O)O[C@@H](C)C(=O)N[C@@H](CCN)C(=O)N[C@@H](CCCCN)C(=O)O[C@@H](C)C(=O)N[C@@H](CCN)C(=O)N[C@@H](CCCCN)C(=O)O[C@@H](C)C(=O)N[C@@H](CCN)C(=O)N[C@@H](CCCCN)C(N)=O", "note": "[compound 14, Ac-Tyr-Gly-Ala-Dab-Lys-lac-Dab-Lys-lac-Dab-Lys-lac-Dab-Lys-NH2] (Ac-YGA[Dab]K[Lac][Dab]K[Lac][Dab]K[Lac][Dab]K-NH2)", "values": [{"measurement": "RNA duplex 1 Tm", "setting": "[4]; observed Tm with peptide/depsipeptide 100 µM, pH 7.0, 10 mM phosphate, RNA alone 43.8 ± 0.4, mean ± SD of 2-4 independent experiments", "result": "52.4 ± 1.5", "unit": "°C"}, {"measurement": "RNA duplex 1 ΔTm", "setting": "[4]; peptide/depsipeptide 100 μM, RNA 2.5 μM each strand, 10 mM phosphate, pH 7.0, vs RNA alone at matched pH, mean of 2–4 replicates", "result": 8.6, "unit": "°C"}, {"measurement": "RNA duplex 2 Tm", "setting": "[5]; observed Tm with peptide/depsipeptide 100 µM, pH 7.0, RNA alone 33.7 ± 0.7, mean ± SD of 2-4 independent experiments", "result": "42.8 ± 0.6", "unit": "°C"}, {"measurement": "RNA duplex 2 ΔTm", "setting": "[5]; peptide/depsipeptide 100 μM, RNA 2.5 μM each strand, pH 7.0, 10 mM phosphate, 100 mM NaCl, mean of 2–4 replicates", "result": 9.1, "unit": "°C"}, {"measurement": "RNA duplex 3 Tm", "setting": "[6]; observed Tm with peptide/depsipeptide 100 µM, pH 7.0, RNA alone 48.6 ± 0.7, mean ± SD of 2-4 independent experiments", "result": "58.6 ± 0.7", "unit": "°C"}, {"measurement": "RNA duplex 3 ΔTm", "setting": "[6]; peptide/depsipeptide 100 μM, 5.0 μM palindromic strand, pH 7.0, 10 mM phosphate, 100 mM NaCl, mean of 2–4 replicates", "result": 10.0, "unit": "°C"}, {"measurement": "H26a RNA Tm", "setting": "[7]; observed Tm with peptide/depsipeptide 100 µM, pH 7.0, RNA alone 53.4 ± 0.5, mean ± SD of 2-4 independent experiments", "result": "63.8 ± 0.6", "unit": "°C"}, {"measurement": "H26a RNA ΔTm", "setting": "[7]; peptide/depsipeptide 100 μM, RNA 2.5 μM strand, pH 7.0, 10 mM phosphate, 100 mM NaCl, mean of 2–4 replicates", "result": 10.4, "unit": "°C"}, {"measurement": "changes in CD spectra of the RNA duplex upon addition", "setting": "[3]", "result": "changes were observed in the CD spectra"}, {"measurement": "Kd", "setting": "[3]; change in CD signal at 266 nm, one-site binding model, RNA duplex 1 5 μM each strand, depsipeptide 0–10 μM, MES-TEA buffer pH 6, 5 °C, independent triplicates averaged, read-out: apparent Kd", "result": "~3", "unit": "µM"}]}]}
